One may read the IC50 as the midpoint of a concentration-inhibition curve. The low end stands for greater potency, the high end for weaker potency.

Among the data in publication PMC4062389, “LASSBio-1135: A Dual TRPV1 Antagonist and Anti-TNF-Alpha Compound Orally Effective in Models of Inflammatory and Neuropathic Pain” (PLoS ONE, 2014) are IC50 values, retold here.

The target of the experiment is TRPV1 (Rattus norvegicus, UniProt O35433). Nature of the experiment: two-electrode voltage clamp in Xenopus oocytes injected with rat TRPV1 cRNA; inhibition of […] capsaicin current. The format is cell-based. Background: Two-electrode voltage clamp is typically applied to oocytes expressing channels or transporters.
Sequence of TRPV1 (O35433 whole entry): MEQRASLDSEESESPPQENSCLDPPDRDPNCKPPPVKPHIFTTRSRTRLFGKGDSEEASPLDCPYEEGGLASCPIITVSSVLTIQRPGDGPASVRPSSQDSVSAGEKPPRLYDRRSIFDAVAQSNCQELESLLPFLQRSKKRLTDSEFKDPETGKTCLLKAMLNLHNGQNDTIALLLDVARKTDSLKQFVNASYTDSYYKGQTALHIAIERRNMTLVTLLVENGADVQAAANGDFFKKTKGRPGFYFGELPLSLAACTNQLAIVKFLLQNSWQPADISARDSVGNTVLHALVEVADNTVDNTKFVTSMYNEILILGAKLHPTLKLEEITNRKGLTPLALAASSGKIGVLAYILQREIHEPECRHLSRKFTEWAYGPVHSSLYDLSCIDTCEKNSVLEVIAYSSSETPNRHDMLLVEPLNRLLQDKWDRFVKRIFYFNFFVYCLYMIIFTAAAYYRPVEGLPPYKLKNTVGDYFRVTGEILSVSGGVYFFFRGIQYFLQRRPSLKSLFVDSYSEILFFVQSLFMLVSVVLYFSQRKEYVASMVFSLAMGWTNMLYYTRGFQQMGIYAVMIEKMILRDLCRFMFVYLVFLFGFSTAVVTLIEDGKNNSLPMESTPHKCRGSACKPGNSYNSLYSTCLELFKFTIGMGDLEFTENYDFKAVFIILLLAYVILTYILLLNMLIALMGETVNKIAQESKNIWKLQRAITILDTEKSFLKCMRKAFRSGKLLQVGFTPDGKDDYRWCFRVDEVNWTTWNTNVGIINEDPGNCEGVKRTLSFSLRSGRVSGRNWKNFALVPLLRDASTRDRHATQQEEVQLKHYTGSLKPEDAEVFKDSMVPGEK

On to LASSBio-1135, for which the IC50 is 580 nM.
